Measured values published in ChEMBL document CHEMBL1152560, “Substituted 2-arylbenzothiazoles as kinase inhibitors: hit-to-lead optimization” (Bioorg Med Chem, 2009).

Experiments:
[1] = target: Vascular endothelial growth factor receptor 2 (Homo sapiens, UniProt P35968); assay: Residual activity of VEGFR2 at 1 uM by microplate scintillation counting
[2] = target: T1, Eukaryotic translation initiation factor 2-alpha kinase 3 (Homo sapiens) (UniProt Q9NZJ5); assay: Residual activity of EIF2AK3 at 10 uM by microplate scintillation counting
T1 sequence (whole entry): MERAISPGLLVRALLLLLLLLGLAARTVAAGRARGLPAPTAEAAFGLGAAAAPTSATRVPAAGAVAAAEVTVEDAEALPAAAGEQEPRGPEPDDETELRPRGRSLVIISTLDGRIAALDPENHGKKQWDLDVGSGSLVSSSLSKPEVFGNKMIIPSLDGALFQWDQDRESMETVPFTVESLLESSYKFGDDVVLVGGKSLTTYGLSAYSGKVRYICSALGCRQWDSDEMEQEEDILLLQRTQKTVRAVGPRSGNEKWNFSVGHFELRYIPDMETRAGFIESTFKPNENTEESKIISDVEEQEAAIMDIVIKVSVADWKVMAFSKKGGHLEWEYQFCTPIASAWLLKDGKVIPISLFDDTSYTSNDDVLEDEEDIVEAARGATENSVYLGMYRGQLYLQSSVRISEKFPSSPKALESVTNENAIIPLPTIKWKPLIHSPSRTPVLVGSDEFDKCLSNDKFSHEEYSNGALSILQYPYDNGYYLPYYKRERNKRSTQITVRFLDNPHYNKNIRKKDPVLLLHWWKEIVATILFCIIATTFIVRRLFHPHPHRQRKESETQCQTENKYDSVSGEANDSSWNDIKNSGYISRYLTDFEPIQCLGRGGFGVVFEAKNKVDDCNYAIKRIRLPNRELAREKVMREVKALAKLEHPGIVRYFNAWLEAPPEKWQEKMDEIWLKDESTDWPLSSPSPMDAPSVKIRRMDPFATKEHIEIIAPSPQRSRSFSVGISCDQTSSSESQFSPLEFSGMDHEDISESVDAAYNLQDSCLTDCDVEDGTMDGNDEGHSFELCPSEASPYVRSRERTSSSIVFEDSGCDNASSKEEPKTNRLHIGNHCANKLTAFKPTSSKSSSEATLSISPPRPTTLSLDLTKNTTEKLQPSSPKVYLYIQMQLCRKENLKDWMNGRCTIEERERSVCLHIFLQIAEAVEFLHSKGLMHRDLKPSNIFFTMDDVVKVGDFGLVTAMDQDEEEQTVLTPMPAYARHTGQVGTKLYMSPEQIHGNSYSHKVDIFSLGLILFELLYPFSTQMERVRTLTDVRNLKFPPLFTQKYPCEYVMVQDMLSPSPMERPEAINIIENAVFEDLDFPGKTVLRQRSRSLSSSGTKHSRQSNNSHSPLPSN

[3] = target: RAC-alpha serine/threonine-protein kinase (Homo sapiens) (UniProt P31749); assay: Residual activity of AKT1 at 1 uM by microplate scintillation counting
RAC-alpha serine/threonine-protein kinase (Homo sapiens), sequence (P31749 whole entry): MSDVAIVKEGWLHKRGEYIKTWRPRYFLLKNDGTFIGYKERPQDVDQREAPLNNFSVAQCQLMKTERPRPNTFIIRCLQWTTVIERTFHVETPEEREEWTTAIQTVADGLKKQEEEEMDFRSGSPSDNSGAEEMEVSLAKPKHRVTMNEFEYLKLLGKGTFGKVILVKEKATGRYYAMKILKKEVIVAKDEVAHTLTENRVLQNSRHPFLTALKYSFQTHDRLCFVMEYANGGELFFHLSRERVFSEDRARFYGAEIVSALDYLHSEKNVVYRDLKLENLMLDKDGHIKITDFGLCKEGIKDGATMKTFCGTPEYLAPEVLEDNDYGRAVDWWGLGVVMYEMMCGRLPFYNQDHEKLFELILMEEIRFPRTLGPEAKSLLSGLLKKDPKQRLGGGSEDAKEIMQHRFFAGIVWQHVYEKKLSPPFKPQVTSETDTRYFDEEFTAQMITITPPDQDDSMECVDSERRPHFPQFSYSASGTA

[4] = target: Tyrosine-protein kinase receptor UFO (Homo sapiens) (UniProt P30530); assay: Residual activity of AXL at 1 uM by microplate scintillation counting
Tyrosine-protein kinase receptor UFO (Homo sapiens), sequence (P30530 whole entry): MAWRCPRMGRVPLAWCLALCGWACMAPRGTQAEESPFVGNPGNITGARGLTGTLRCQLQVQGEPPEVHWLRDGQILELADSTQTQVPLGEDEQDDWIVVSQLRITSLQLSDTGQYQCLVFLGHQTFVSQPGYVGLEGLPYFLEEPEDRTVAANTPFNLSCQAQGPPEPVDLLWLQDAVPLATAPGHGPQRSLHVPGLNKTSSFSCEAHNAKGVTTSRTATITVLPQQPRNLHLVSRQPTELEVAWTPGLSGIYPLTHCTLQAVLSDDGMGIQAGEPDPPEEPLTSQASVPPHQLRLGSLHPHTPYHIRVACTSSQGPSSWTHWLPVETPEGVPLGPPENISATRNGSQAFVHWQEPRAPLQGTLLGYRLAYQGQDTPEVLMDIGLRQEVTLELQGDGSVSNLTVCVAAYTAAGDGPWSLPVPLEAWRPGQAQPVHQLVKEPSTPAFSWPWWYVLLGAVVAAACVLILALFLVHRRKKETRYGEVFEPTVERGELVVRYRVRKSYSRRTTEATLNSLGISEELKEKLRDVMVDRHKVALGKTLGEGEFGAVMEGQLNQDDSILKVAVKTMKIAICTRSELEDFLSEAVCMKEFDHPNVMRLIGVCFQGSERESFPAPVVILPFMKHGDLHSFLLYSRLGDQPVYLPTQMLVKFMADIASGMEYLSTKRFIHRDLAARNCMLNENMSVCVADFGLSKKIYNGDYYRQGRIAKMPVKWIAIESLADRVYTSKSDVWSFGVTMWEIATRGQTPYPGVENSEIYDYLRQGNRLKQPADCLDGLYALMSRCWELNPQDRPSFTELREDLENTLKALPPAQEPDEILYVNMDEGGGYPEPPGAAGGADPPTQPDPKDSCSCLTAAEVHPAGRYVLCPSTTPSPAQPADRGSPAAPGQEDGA

[5] = target: Serine/threonine-protein kinase PAK 2 (Homo sapiens) (UniProt Q13177); assay: Residual activity of PAK2 at 0.1 uM by microplate scintillation counting
Serine/threonine-protein kinase PAK 2 (Homo sapiens), sequence (Q13177 whole entry): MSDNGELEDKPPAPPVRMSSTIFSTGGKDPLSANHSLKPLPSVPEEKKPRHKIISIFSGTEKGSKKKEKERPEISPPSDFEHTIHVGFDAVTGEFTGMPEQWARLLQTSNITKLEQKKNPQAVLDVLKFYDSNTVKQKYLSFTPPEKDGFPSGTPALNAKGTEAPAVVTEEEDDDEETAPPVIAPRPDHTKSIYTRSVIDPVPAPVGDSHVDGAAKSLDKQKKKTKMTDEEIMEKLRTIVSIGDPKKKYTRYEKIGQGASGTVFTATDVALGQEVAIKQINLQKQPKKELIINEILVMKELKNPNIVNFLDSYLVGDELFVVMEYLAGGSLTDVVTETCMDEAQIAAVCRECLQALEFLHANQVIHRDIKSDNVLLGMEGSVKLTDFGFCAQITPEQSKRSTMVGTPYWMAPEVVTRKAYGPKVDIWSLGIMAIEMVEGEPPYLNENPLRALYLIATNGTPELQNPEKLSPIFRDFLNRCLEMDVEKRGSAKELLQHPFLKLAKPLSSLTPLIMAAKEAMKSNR

[6] = target: Protein kinase C delta type (Homo sapiens) (UniProt Q05655); assay: Residual activity of PKCdelta at 0.1 uM by microplate scintillation counting
Protein kinase C delta type (Homo sapiens), sequence (Q05655 whole entry, looked up): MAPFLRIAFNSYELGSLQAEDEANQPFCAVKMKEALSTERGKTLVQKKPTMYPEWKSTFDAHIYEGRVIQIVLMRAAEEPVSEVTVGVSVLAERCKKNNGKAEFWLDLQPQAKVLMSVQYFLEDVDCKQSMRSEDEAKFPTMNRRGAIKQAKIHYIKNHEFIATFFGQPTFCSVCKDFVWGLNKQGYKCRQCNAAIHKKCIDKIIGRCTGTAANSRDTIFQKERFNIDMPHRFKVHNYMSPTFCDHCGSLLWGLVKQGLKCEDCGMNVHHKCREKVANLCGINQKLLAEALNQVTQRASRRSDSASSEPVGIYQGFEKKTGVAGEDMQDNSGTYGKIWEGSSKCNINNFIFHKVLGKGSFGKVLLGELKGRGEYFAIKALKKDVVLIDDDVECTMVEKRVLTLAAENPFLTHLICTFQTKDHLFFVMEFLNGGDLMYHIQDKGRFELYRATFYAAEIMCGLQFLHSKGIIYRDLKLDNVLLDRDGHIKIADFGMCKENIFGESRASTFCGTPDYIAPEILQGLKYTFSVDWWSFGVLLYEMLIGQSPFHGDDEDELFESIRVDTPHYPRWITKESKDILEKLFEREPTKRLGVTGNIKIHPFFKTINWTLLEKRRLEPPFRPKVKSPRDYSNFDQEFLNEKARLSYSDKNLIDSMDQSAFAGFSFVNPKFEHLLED

[7] = target: T2, Serine/threonine-protein kinase TBK1 (Homo sapiens) (UniProt Q9UHD2); assay: Residual activity of TBK1 at 0.1 uM by microplate scintillation counting
T2 sequence (whole entry): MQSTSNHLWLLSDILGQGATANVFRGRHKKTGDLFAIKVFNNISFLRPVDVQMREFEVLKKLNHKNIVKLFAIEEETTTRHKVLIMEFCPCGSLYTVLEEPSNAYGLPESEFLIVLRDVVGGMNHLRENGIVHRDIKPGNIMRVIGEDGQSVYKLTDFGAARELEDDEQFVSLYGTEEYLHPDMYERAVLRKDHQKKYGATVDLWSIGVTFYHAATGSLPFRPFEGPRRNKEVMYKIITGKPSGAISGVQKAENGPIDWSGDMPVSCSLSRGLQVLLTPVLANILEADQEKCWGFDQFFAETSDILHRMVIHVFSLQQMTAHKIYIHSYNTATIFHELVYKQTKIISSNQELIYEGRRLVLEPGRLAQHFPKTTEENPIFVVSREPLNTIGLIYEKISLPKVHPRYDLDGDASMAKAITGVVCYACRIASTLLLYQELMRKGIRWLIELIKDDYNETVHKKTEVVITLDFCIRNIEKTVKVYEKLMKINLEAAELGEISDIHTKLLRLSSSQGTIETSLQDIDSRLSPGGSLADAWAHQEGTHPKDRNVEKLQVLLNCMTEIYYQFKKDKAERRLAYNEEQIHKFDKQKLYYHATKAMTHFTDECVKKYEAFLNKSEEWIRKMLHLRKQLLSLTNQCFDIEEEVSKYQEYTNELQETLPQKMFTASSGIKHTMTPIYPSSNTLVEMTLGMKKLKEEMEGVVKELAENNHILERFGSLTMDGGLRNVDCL

Vascular endothelial growth factor receptor 2, sequence (P35968 whole entry): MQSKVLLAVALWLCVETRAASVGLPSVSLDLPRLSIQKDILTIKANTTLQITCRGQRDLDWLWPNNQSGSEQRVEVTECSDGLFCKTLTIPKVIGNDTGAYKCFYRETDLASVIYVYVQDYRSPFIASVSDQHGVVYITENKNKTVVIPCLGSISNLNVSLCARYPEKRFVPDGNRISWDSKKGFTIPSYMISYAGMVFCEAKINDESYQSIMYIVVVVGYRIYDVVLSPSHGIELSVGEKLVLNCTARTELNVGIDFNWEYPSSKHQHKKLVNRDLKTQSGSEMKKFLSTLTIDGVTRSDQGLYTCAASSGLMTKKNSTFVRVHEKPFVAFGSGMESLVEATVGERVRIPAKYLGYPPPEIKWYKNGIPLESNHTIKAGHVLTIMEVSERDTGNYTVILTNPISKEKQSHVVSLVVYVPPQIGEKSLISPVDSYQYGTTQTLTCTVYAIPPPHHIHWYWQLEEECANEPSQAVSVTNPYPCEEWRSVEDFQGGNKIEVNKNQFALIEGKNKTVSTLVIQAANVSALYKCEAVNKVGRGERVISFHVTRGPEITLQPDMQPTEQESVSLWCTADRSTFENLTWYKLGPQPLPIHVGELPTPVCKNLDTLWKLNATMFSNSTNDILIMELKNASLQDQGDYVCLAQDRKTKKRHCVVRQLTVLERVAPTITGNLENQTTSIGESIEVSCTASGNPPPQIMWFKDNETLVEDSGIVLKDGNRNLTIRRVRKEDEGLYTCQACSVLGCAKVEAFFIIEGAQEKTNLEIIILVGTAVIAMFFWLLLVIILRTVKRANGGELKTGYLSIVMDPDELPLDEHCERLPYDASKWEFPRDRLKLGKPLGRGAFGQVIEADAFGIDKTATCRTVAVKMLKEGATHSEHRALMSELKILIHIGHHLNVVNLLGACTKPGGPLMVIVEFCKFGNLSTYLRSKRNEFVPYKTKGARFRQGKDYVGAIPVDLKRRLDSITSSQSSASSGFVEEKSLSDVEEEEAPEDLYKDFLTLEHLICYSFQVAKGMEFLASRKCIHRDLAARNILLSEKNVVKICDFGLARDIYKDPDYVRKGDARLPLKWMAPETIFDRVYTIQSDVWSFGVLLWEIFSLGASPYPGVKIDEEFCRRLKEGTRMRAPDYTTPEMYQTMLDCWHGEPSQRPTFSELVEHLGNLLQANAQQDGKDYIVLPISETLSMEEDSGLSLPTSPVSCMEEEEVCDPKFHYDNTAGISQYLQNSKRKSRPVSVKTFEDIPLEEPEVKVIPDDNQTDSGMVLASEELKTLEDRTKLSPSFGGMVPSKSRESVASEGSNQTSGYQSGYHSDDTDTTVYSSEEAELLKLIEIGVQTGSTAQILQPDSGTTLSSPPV

In the case of COc1cc2c(Oc3ccc(-c4nc5ccccc5s4)cc3)ncnc2cc1OCCCN1CCN(C)CC1, the residual activity [1] is reported as 40%, the residual activity [2] is reported as 256% and the residual activity [3] is reported as 109%. For the same compound, the residual activity [4] was 88%, the residual activity [5] was 111% and the residual activity [6] was 93%. For the same compound, the residual activity [7] was 79%.
For COc1cc2c(Oc3ccc(-c4nc5ccccc5s4)cc3)ncnc2cc1OCCCN1CCCC1, the residual activity [1] was 49%, the residual activity [2] was 239% and the residual activity [3] was 97%. The residual activity [4] was 71%, the residual activity [5] was 93% and the residual activity [6] was 88%. The residual activity [7] was 94%.
Work on COc1cc2c(Oc3ccc(-c4nc5ccccc5s4)cc3F)ncnc2cc1OCCCN1CCN(C)CC1 yielded a residual activity [1] of 53%, a residual activity [2] of 155% and a residual activity [3] of 100%. For the same compound, the residual activity [4] was 89%, the residual activity [5] was 97% and the residual activity [6] was 95%. The residual activity [7] was 94%.
